Results on 1 substance are retold here after paper PMC11187126, “Structure and dynamics of the pyroglutamylated RF-amide peptide QRFP receptor GPR103” (Nature Communications, 2024).

In this assay the target is T1, GPR103 C327^7.48A (Homo sapiens, UniProt Q96P65, C327A).
T1 construct: we used human full-length QRFPR-encoding plasmids; expressed in transfected cells; host or cells: HEK293 cells (HEK293A in the flow cytometry section), pCAGGS vector
T1 sequence (Q96P65 1-431 C327A): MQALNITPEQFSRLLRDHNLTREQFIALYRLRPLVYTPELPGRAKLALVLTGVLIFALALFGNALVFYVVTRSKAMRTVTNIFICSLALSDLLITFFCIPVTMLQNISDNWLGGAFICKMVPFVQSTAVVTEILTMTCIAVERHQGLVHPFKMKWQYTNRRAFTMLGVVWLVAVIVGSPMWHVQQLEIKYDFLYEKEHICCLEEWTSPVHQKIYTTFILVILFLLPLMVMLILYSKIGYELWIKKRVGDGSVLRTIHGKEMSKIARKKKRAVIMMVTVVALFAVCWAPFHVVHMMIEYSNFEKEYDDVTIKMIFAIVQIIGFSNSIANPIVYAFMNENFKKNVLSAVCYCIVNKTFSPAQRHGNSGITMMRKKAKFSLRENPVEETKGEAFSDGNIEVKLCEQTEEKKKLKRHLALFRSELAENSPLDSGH
In words: TGFα shedding assay; Exp. level WT (1:5). The class given is cell-based. The procedure:
For the TGFα shedding assay and the flow cytometry analysis, we used human full-length QRFPR-encoding plasmids. Specifically, GPR103 was N-terminally modified with an HA signal sequence followed by a FLAG epitope and then a flexible linker ([…]; the FLAG epitope is underlined) and inserted into the pCAGGS vector. Plasmid encoding GPR103 mutants were generated using Quickchange Site-Directed Mutagensis kit (Agilent).
The TGFα shedding assay was performed as described previously with minor modifications. Plasmid transfection was performed in a 6-well plate with a mixture of 500 ng (per well in a 6-well plate) AP-TGFα-encoding plasmid and 200 ng GPR103-encoding plasmid. After 1-day culture, the transfected cells were harvested by trypsinization, pelleted by centrifugation at 190 × g for 5 min, and washed once with 5 mM HEPES (pH 7.4)-containing Hank’s Balanced Salt Solution (HBSS). After centrifugation, the cells were resuspended in 8 mL of the HEPES-containing HBSS. The cell suspension was seeded in a 96-well culture plate (cell plate) at a volume of 90 μL (per well hereafter) and incubated in a 37 °C incubator with 5% CO2 for 30 min. […] After spinning the cell plates at 190 × g for 2 min, 80 μL of conditioned media was transferred to an empty 96-well plate (conditioned media (CM) plate). Then, 80 μL of AP reaction solution (10 mM p-nitrophenylphosphate (p-NPP), 120 mM Tris-HCl (pH 9.5), 40 mM NaCl, and 10 mM MgCl2) was dispensed into the cell plates and the CM plates. Absorbance at 405 nm of the plates was measured using a microplate reader (SpectraMax 340 PC384, Molecular Devices) before and after 1-h incubation at room temperature. Ligand-induced AP-TGFα release was calculated by subtracting spontaneous AP-TGFα release signal from ligand-induced AP-TGFα release signal. The AP-TGFα release signals were fitted to a four-parameter sigmoidal concentration–response curve, using the Prism 10 software (GraphPad Prism). For each replicate experiment, the pEC50 parameter (negative logarithmic values of EC50 values) of the individual GPR103 mutants were normalized to that of the wild-type GPR103 performed in parallel, and resulting ∆pEC50 values were used to denote ligand response activity of the mutants. […]
Exp. le vel: WT (1:5 0)Exp. le vel: WT (1:5 0)Exp. le vel: WT (1:5 0)Exp. le vel: WT (1:2 0)Exp. le vel: WT (1:2 0)Exp. le vel: WT (1:1 0) […]
L1 4N - t e r mA F2 5N - t e r mA I 2 6N - t e r mA Y 2 9N - t e r mA C 9 82 .5 7A T10 22 .6 1A Exp . l eve l: WT (1 :5)Exp . l evel : >WT (1 :1)Exp. le vel: WT (1:2 0)Exp. le vel: WT (1:2 0)Exp. le vel: WT (1:5 0)Exp . l eve l: WT (1 :1) […]
Exp. le vel: WT (1:1 0)Exp. le vel: WT (1:2 0) C 1 1 83 .2 5AExp. le vel: WT (1:5 0)Exp. le vel: WT (1:5 0)Exp. le vel: WT (1:2 0)Exp . l eve l: WT (1 :5) […]
Exp. le vel: WT (1:5 0)Exp. le vel: WT (1:1 0)Exp. le vel: WT (1:5 0) E203ECL2AExp . l evel : >WT (1 :1)Exp. le vel: WT (1:5 0)Exp. le vel: WT (1:5 0) […]
Exp . l eve l: WT (1 :1) F28Exp. le vel: WT (1:5 0) C 2 8 56 .4 7AExp. le vel: WT (1:2 0) WExp. le vel: WT (1:2 0) F28Exp. le vel: WT (1:5 0)Exp . l evel : >WT (1 :1) […]
Exp. le vel: WT (1:5 0)Exp. le vel: WT (1:5 0) C 3 2 77 .4 8AExp . l eve l: WT (1 :5)Exp . l evel : >WT (1 :1)Exp . l evel : >WT (1 :1) […]
Suppl eme nt ary Figure 1 | Mutational analysis of GPR103. […]
mutants. Data are presented as mean values ± SEM, normally n=3-5; dots), each performed in triplicate. b-d Cell-surface expression (b) and QRFP26-in-duced activation of GPR103 (c, d) were analyzed by the flow cytometry and the TGFα shedding assay, respectively. From the concentration–response curves (a), Emax (c) and ΔpEC50 (d) values relative to the wild type were calculated. Colors in the mutant bars indicate an expression level matching to that of titrated wild type. Statistical analyses were performed using the ordinary one-way ANOVA followed by Dunnett tests with the expression-matched […]

Like-named read-outs stand apart in the source and are kept apart here. No end group written: not given here.

TSGPLGNLAEELNGYSRKKGGFSFRF-NH2 [QRFP26]: the Emax stood at 95.99 % WT (Exp. #1); 96.35 % WT (Exp. #2); 104.77 % WT (Exp. #3); 99% (mean, read-out: Emax); 104 ± 2.3% (n = 3, read-out: Emax). Where the note is “n = 3”, this substance had an EC50 of 4.27 nM.
